Laboratory results taken from publication PMC11178805, “Ligand-based design of [^18F]OXD-2314 for PET imaging in non-Alzheimer’s disease tauopathies” (Nature Communications, 2024).

Legend:
[1] = biological target: T1, 4R-tau aggregates in PSP tissue (Homo sapiens, UniProt P10636); experiment: Competition binding vs [^3H]OXD-2115 in PSP tissue homogenates; conditions: vs [^3H]OXD-2115, PSP tissue homogenates, n = 1
T1 construct: tissue Neurodegenerative Disease Brain Bank at UCSF
Description: (§1) Fresh frozen, autopsy-confirmed human PD anterior cingulate cortex brain tissue blocks (1 cm^3) were obtained from Dr. Thomas Beach at Banner/Sun Health AZ with funding from the Michael J. Fox Foundation and contained frequent α-synuclein aggregates and no other detectable aggregated amyloid species. The frozen tissue blocks were prepared for the binding assays as previously described[47],[48], except that equal quantities of the homogenates of three AD brains (AD1-AD3, Table S1) were pooled, as were homogenates from three PSP brains (PSP1-PSP3), three CBD brains (CBD1-CBD3), three Pick’s brains (PiD1-PiD3), and 4 PD brains (PD1-PD4) in order to help minimize the inter-subject variability within the different neuropathological groups. Individual subcortical brain tissues from a PSP subject (PSP4) and a CBD subject (CBD4), as well as with the middle frontal cortex of a control subject, were prepared for the binding assays as previously described[47],[48].
(§2) The equilibrium inhibition constant (Ki) values of the unlabeled compounds were determined versus tritium-labeled radioligands using published methods.

aggregated Aβ = biological target: T2, aggregated Aβ (Homo sapiens, UniProt P05067); experiment: Competition binding vs [^3H]PiB in AD tissue homogenates; conditions: n = 3
T2 construct: tissue Neurodegenerative Disease Brain Bank at UCSF; host or cells: human AD brain, middle frontal gyrus, pooled homogenate
Description: as §1, §2

[2] = biological target: T3, norepinephrine transporter(h) (Homo sapiens, UniProt P23975); experiment: In vitro pharmacology binding screen (Eurofins): norepinephrine transporter; conditions: read-out: inhibition of antagonist radioligand (protriptyline) binding to norepinephrine transporter(h)
T3 construct: purchased Eurofins, France (contract screening)
Description: OXD-2314 binding to CNS receptors was calculated as a percentage of inhibition of a receptor-specific radioligand. Enzyme inhibition was calculated as the percent inhibition of baseline enzyme activity where inhibition above 50% was considered significant. […] Norepinephrine transports are expressed in low concentration throughout the brain and its relative concentration are not affected by aging or neurodegeneration. 5-lipoxygenase may be overexpressed in aging brain and play some role in neurodegeneration, which could be necessary to further investigate in vivo[42]. Off-target binding to monoamine oxidase A and B (MAO-A and MAO-B) has been seen with some tau PET radiotracers[43],[44].

[3] = Whole-body PET-CT biodistribution and dose estimation in rats; assay type: in vivo
Source text: Six rats (3 male, 19.9 ± 6.2 MBq; and 3 female, 20.8 ± 3.2 MBq) were imaged using PET-CT for whole-body biodistribution of radioactivity and dose estimation using standard mass and density of the organs for adult male and female subjects, respectively (Figure S17). […] The estimated whole-body effective dose was 21.3 ± 3.1 and 22.5 ± 0.9 µSv/MBq for adult male and female models, respectively, with the highest absorbed dose of 50.6 ± 16.9 µGy/MBq in the large intestine.
A total of 8 healthy adult rats (Sprague-Dawley, 384 ± 56 g; 4/4 M/F) underwent PET imaging following bolus injection of [^18F]OXD-2314 (20.5 ± 4.1 MBq), with two animals (M/F) scanned for 120 min with the head in the centre of PET field-of-view (FOV) whereas six animals (3/3 M/F) scanned for 180 min at three bed positions (head-to-bottom) with 15 frames (2×15 s, 2×30 s, 2×60 s, 1×120 s, 1×180 s, 2×240 s, 2×300 s, and 3×600 s) to cover the whole body. PET images were acquired using a nanoScan™ PET/CT scanner (Mediso, Budapest, Hungary) with rats anesthetized under isoflurane in O2 (1.5–2%, 1 L/min) throughout the imaging session and monitored closely for body temperature and respiration rate. A scout CT was acquired for PET FOV positioning, then a material map CT image was acquired for PET corrections of attenuation and scatter and for PET/CT co-registration to define anatomic brain regions of interest. For the brain scans, aacquired list-mode data were sorted into thirty-nine three-dimensional (3D) (3×5 s, 3×15 s, 3×20 s, 7×60 s, 17×180 s, and 6×600 s), true sinograms (ring difference 84). The 3D sinograms were converted in 2D sinograms using Fourier rebinning with corrections for detector geometry, efficiencies, attenuation, and scatter before image reconstruction using 2D filtered back projection with a Hann filter at a cut-off of 0.50 cm^−1. The analytical reconstruction was also used for dose assessment of the multi-frame whole-body images. All data were corrected for dead time and were decay-corrected to the start of acquisition. Iteratively reconstructed images with the manufacturer’s proprietary 3D algorithm (6 subsets, 4 iterations) were used for PET and CT co-registration, for co-registration of subject’s CT with a stereotactic MR atlas of brain[51], for organ region-of-interest (ROI) placement, and for presentation in figures. Filtered back projection images were used to extract regional brain and organ time-activity curves (TACs) with VivoQuant® 2020 software (Invicro, Needham, MA, USA) and Amide (1.0.4)[52]. The selected organs (a total of 12) include brain, lungs, heart wall, heart content, liver, stomach content, spleen, kidneys, small intestine content, upper large intestine content, lower large intestine content, and urinary bladder content. Normalized cumulated activities of each organ were calculated using trapezoidal integration of the area under the TACs plus extrapolation of the TAC to infinity with natural decay of the radiotracer. Dose assessment was performed with OLINDA/EXM 1.1 to calculate the effective dose and the effective dose equivalent. SUV were calculated by normalizing regional radioactivity for injected radioactivity and body weight.

T3 sequence (P23975 whole entry): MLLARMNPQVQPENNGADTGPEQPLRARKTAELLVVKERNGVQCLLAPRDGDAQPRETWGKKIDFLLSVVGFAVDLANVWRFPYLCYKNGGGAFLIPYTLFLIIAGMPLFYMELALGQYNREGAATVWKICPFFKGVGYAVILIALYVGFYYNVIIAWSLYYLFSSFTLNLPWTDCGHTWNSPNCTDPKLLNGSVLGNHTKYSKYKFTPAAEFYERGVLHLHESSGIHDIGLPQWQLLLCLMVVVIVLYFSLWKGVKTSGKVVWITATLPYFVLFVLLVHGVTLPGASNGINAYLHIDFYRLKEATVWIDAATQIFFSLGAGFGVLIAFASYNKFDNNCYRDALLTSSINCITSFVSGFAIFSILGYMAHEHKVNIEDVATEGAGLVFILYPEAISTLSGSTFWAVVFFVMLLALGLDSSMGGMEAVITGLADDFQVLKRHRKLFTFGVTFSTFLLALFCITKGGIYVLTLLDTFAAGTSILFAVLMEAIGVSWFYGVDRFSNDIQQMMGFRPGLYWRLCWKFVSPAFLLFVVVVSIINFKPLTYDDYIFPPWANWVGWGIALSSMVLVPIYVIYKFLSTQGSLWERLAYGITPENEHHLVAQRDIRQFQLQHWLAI
T2 sequence (P05067 672-713 limits assumed): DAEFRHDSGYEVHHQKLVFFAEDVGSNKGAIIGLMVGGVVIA
T1 sequence (P10636 1-441 isoform P10636-8): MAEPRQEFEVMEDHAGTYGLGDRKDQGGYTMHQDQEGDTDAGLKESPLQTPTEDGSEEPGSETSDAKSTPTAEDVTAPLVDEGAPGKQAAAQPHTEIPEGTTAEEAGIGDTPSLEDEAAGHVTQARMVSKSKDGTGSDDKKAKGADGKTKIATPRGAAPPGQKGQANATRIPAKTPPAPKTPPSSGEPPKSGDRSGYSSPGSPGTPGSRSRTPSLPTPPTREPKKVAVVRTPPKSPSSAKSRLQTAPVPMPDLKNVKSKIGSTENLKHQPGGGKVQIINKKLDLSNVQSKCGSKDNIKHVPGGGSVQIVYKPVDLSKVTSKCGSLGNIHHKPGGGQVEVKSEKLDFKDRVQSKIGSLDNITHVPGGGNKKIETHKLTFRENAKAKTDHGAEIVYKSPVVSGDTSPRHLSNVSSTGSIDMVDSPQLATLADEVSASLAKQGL

With COC1CCCN(c2ccc(-c3cc4cc(O)ccc4[nH]3)c(F)n2)C1 (stereo not drawn) [OXD-2314, 2-(2-fluoro-6-(3-methoxypiperidin-1-yl)pyridin-3-yl)-1H-indol-5-ol] the Ki [1] was 4.8 nM, the Ki (aggregated Aβ) was 161 ± 34 nM and the inhibition at 10 µM [2] was 62.9%.
For CO[C@H]1CCCN(c2ccc(-c3cc4cc(O)ccc4[nH]3)c([18F])n2)C1 [[^18F]OXD-2314], the “estimated whole-body effective dose” value ([3]; adult female model, from rat data) was 22.5 ± 0.9 µSv/MBq, the “estimated whole-body effective dose” value ([3]; adult male model, from rat data) was 21.3 ± 3.1 µSv/MBq and the “highest absorbed dose, large intestine” value ([3]; from rat data) was 50.6 ± 16.9 µGy/MBq. For the same compound, the “uptake of radioactivity (normalized cumulated activity), large intestines” value ([3]; rats, n = 6) was 0.067 ± 0.032 MBqOrgan⋅hr/MBqInjected, the “uptake of radioactivity (normalized cumulated activity), liver” value ([3]; rats, n = 6) was 0.147 ± 0.023 MBqOrgan⋅hr/MBqInjected and the “uptake of radioactivity (normalized cumulated activity), small intestine” value ([3]; rats, n = 6) was 0.075 ± 0.019 MBqOrgan⋅hr/MBqInjected.
